Where two headings read alike, the source gives them in different places.
Assays:
Pyricularia oryzae [1] = experiment: whole plant or invertebrate; format: in vivo; conditions: foliar, 168 h, read-out: control value
Pyricularia oryzae [2] = experiment: whole plant or invertebrate; format: in vivo; conditions: 168 h, read-out: control value

| SMILES | pest or weed control at 500 ppm (Pyricularia oryzae [1]) | melting point | pest or weed control at 500 ppm (Pyricularia oryzae [2]) |
| --- | --- | --- | --- |
| O=C(NCSc1ccc(Cl)cc1)c1snc(Cl)c1Cl [compound 65, N-(4-chlorophenylthiomethyl)-3,4-dichloro-5-isothiazolecarboxamide] | > 80% | 106 to 107 °C |  |
| Cc1cc(C)n(COC(=O)c2snc(Cl)c2Cl)n1 [compound 98, 3,5-dimethylpyrazol-1-ylmethyl 3,4-dichloro-5-isothiazolecarboxylate] | > 80% | 80 to 81 °C |  |
| O=C(Nc1ccc(C(F)(F)F)cc1)OCNC(=O)c1snc(Cl)c1Cl [compound 58, N-[N-(4-trifluoromethylphenyl)-carbamoyloxymethyl]-3,4-dichloro-5-isothiazolecarboxamide] |  | 117 to 119 °C | > 80% |
| CN(NC=C(C#N)c1ccccc1)C(=O)c1snc(Cl)c1Cl |  | 130 to 139 °C |  |
| O=C(NC(O)C(F)(F)F)c1snc(Cl)c1Cl (stereo not shown) [compound 48, N-(2,2,2-trifluoro-1-hydroxyethyl)-3,4-dichloro-5-isothiazolecarboxamide] | > 80% | 90 to 93 °C |  |
| CCOC(NC(=O)c1snc(Cl)c1Cl)C(F)(F)F (stereo not shown) [compound 49, N-(2,2,2-trifluoro-1-ethoxyethyl)-3,4-dichloro-5-isothiazolecarboxamide] |  | 99 to 101 °C | > 80% |
| COCNC(=O)c1snc(Cl)c1Cl |  | 79 to 87 °C |  |
| O=C(S)c1snc(Cl)c1Cl |  | 79 to 80 °C |  |
| O=C(c1snc(Cl)c1Cl)n1[nH]c(-c2ccc(Cl)cc2)cc1=O [compound 288] |  | > 250 °C | > 80% |
| Cn1nnnc1SCN(CNC(=O)c1snc(Cl)c1Cl)C(=O)c1snc(Cl)c1Cl [compound 154, N-[(3,4-dichloro-5-isothiazolecarboxamido)-methyl]-N-(1-methyl-5-tetrazolethiomethyl)-3,4-dichloro-5-isothiazolecarboxamide] |  | 185 to 188 °C | > 80% |
| Cc1c(-c2ccccc2)[nH]n(C(=O)c2snc(Cl)c2Cl)c1=O |  | 190 to 191 °C |  |
| N#C/C(=N\c1ccc(C(F)(F)F)cc1)NC(=O)c1snc(Cl)c1Cl |  | 151 to 153 °C |  |
| CCCC(NC(C)=O)NC(=O)c1snc(Cl)c1Cl (stereo not shown) [compound 112, N-[1-(acetamido)butyl]-3,4-dichloro-5-isothiazolecarboxamide] | > 80% | 162 to 165 °C | > 80% |
| O=C(NC(Sc1nnc(-c2ccccc2)s1)C(F)(F)F)c1snc(Cl)c1Cl (stereo not shown) |  | 124 to 127 °C |  |
| CC1(C)OCC(CNC(=O)c2snc(Cl)c2Cl)O1 (stereo not shown) |  | 132 to 133 °C |  |
| O=C(NCO)c1snc(Cl)c1Cl [compound 45, N-hydroxymethyl-3,4-dichloro-5-isothiazolecarboxamide] | > 80% |  |  |
| O=CN(CNC(=O)c1snc(Cl)c1Cl)Cc1ccccc1 | > 80% | 102 to 103 °C | > 80% |
| O=C(NCC(O)CO)c1snc(Cl)c1Cl (stereo not shown) |  | 68 to 72 °C |  |
| N#CC(=CNNC(=O)c1snc(Cl)c1Cl)c1ccccc1 |  | 212 to 214 °C |  |
| CN(C)/C=N/C(=O)c1snc(Cl)c1Cl [compound 290, N-dimethylaminomethylidene-3,4-dichloro-5-iso thiazolecarboxamide] |  | 196 to 197 °C | > 80% |
| O=C(NCS(=O)(=O)c1ccccc1)c1snc(Cl)c1Cl [compound 71, N-phenylsulfonylmethyl-3,4-dichloro-5-isothiazolecarboxamide] | > 80% | 175 to 176 °C |  |
| Cn1nnnc1SCNC(=O)c1snc(Cl)c1Cl [compound 76, N-(1-methyl-5-tetrazolethiomethyl)-3,4-dichloro-5-isothiazolecarboxamide] | > 80% | 176 to 177 °C | > 80% |

— patent US20030176477A1 (priority 2000, published 2003)
